In patent US20050244472A1, “Intraocular drug delivery systems containing excipients with reduced toxicity and related methods” (Allergan, Inc., priority 2004, published 2005):
Where “and” joins values, the source holds several entries; their conditions need not be identical. Identical values can stand only once. Like-named read-outs stand apart in the source and are kept apart here.

Experiments:
[1] = test system: ARPE-19 cells; experiment: in vitro
From the text: Cell viability and cell morphology were examined to evaluate the toxicity of excipients on retinal pigment epithelial cells. The human retina cell line used in these experiments is the ARPE-19 cell line (human adult-derived retinal pigmented epithelial cells). […] They form tight-junctions with transepithelial resistance of monolayers (Dunn K C et al., supra). From a molecular standpoint, it appears that ARPE-19 express a huge pattern of genes similar to those expressed by human RPE from fresh explant which could account for their physiological function (Klimanskaya I. et al., “Derivation and comparative assessment of retinal pigment epithelium from human embryonic stem cells using transcriptomics”, Cloning and Stem Cells, 2004, 6(3):217-45).
ARPE-19 cells are widely used as a retinal model that resemble physiological properties of RPE cells. Similar methods of culturing ARPE-19 cells and cytotoxicity assays can be found in Yeung et al., “Cytotoxicity of triamcinolone on cultured human retinal pigment epithelial cells: comparison with dexamethasone and hydrocortisone”, Jpn J. Ophthalmol, 2004; 48:236-242. Cell viability and cell morphology were examined using conventional colormetric and visual methods. Viability and morphology measurements were obtained at 24 hours, 48 hours, and 72 hours after exposure to an excipient composition.
To assess cell viability, mitochondrial metabolism was quantified through conventional colorometric assays (i.e., the MTT assay). This colorimetric assay utilizes 3-(4,5-dimethylthiazol-2-yl)-2,5-diphenyltetrazolium bromide (MTT) and correlates mitochondrial metabolism and cell viability through measurement of dehydrogenase activity which converts a substrate into crystal. More specifically, the assay measures the activity of living cells through mitochondrial dehydrogenases. When dissolved in culture cell medium, MTT solution appears dark orange. Mitochondrial dehydrogenases of viable cells degrade MTT by cleaving the tetrazolium ring yielding to formation of a purple formazan crystal, which is insoluble in water. Crystals are subsequently dissolved in isopropanol solution. A resulting purple solution is spectrophotometrically measured. Cell viability is relative to amount of formazan and calculated as a percentage of remaining treated compared to non-treated cells.
Results from the MTT assay were expressed as a percentage of cell viability calculated using the following equation: % cell viability=ODtest/ODcontrol×100.
For each experiment, one concentration was performed in triplicate. Each point was spectrophotometrically read twice. Average of readings was calculated, then average from these 3 values was determined.
After 3 experiments were independently completed under the same conditions, a graph was plotted with cell viability expressed as a function of concentration (dose response) and for various incubation period (time course). The IC50 was then estimated based on the graphed data.
More specifically, cell density in 24-multiwell plates was observed on the day of the experiment to check if confluence of the cells was reached. Aliquots of MTT concentrated solutions were removed from a freezer at −20° C. and thawed at room temperature. Cell medium was warmed at 37° C. before use. Appropriated tubes for diluting compounds were prepared. Higher concentrations of each excipient agent was prepared. Serial dilution was then performed in cell medium (DMEM:F12+10% FBS).
Cell culture medium in the 24-well plate was removed using vacuum-pump. Cells were then stimulated with 0.5 ml final volume for each concentration of one given excipient agent. Distribution of the excipient-containing solution was performed using automated pipet-aid in sterile environment (under PSM) or not depending on time of compounds and duration of incubation.
After stimulation, cells were replaced in a CO2 incubator for the required time of exposure.

[2] = pH of excipient-containing incubating solutions; format: physicochemical
Method: (§1) For each concentration of tested compound, pH and osmolarity parameters were measured.

[3] = Osmolarity of excipient-containing incubating solutions; format: physicochemical
Method: Osmolarity was measured using osmometer type 13/13DR from Roebling (Berlin, GR).
as §1

[4] = test system: ARPE-19 cells; format: cell-based; set-up: key to Cell Morphology score, Mean: 5 = basal (wild type) to 1 = lethal phenotype
Method: Cell morphology was visualized using light microscopy. Cell morphology observation using light microscopy permits determination of (i) cell number and density and (ii) whether or not cells in contact with an excipient agent display modified phenotype compared to a non-treated population of cells.
Cell morphology was analyzed in parallel by semi-quantitative scoring ranging from 5 to 1, from basal to lethal phenotype respectively, as shown in FIG. 23.
More specifically, cells were removed from an incubator for examination. Morphological shape of cells was visualized using a light microscope and CCD camera. Every 3 wells of a given concentration was observed through image analysis software. Then, a representative photograph describing the average appearance of cells was saved. The supernatant was either, kept for further predefined experiments to perform, or removed using vacuum-pump.
Resulting semi-quantitative scoring is represented as a function of time course and dose response. Score 5: wild type phenotype of non-treated cells, 100% confluent adherent cells. This phenotype very much vary following post-seeding time. For example, at confluence ARPE-19 cells at 1 day appear well defined with visible outer membrane and dark grey cytoplasm. After 3 days of confluence, limits between cells become less visible and cells adopt a more hexagonal shape and constitute an epithelium-like uniform dense structure. Score 4: density<100%. Cell shape has changed, some spaces are present between cells, few cells possibly detached. Score 3: […]. Spaces are sometimes present among cells, areas appears confluent while in others, cells detached. General cell shape starts showing non negligible alterations. Score 2: Cell density<50%. Cells adopt exclusively stressed appearance, presence of mass dead floating cells. Score 1: Cell density<10%. Presence of almost exclusively dead cells.
Based on quotation, each condition of the applied compound was given a score which allow to a morphology evolution profile to be prepared, ie. cell morphology as a function of compound concentration and time of exposure. […]

[5] = 0.1% excipient dilution in culture medium
[6] = 0.5% excipient dilution in culture medium
[7] = 1% excipient dilution in culture medium
[8] = 5% excipient dilution in culture medium
[9] = 10% excipient dilution in culture medium
[10] = 20% excipient dilution in culture medium
[11] = 0.01% excipient dilution in culture medium
[12] = 0.02% excipient dilution in culture medium
[13] = 0.04% excipient dilution in culture medium
[14] = 0.06% excipient dilution in culture medium
[15] = 0.08% excipient dilution in culture medium

sulfobutyl ether 4 beta-cyclodextrin [Captisol]
Cell Viability, Mean (%) [1]: 40%
overall cytotoxicity to ARPE-19 cells (conclusion in words) [1]: mild cytotoxicity
pH [2, 5]: 7.6
pH [2, 6]: 7.6
pH [2, 7]: 7.6
pH [2, 8]: 7.6
pH [2, 9]: 7.7
pH [2, 10]: 7.7
mOsm [3, 5]: 310 mOsm
mOsm [3, 6]: 318 mOsm
mOsm [3, 7]: 333 mOsm
mOsm [3, 8]: 408 mOsm
mOsm [3, 9]: 518 mOsm
mOsm [3, 10]: 710 mOsm

hydroxypropylmethyl cellulose [HPMC]
diminution of cell viability [1]: 20-40%
percentage of cell viability [1]: 60-80%

polysorbate 80
overall cytotoxicity to ARPE-19 cells (conclusion in words) [1]: barely tolerated
cell survival ([1]; 0.1% (w/v)): substantially zero
Cell Morphology score ([4]; 0.01% Tween80, 24 Hours): 4 (Score 4: density<100%)
Cell Morphology score, Mean ([4]; 0.01% Tween80, 24 Hours): 4.0
Cell Morphology score ([4]; 0.01% Tween80, 48 Hours): 4 (Score 4: density<100%)
Cell Morphology score, Mean ([4]; 0.01% Tween80, 48 Hours): 4.0
Cell Morphology score ([4]; 0.01% Tween80, 72 Hours): 4 (Score 4: density<100%)
Cell Morphology score, Mean ([4]; 0.01% Tween80, 72 Hours): 4.0
Cell Morphology score ([4]; 0.02% Tween80, 24 Hours): 3 (Score 3: 80%<Cell density<40%) and 4 (Score 4: density<100%)
Cell Morphology score, Mean ([4]; 0.02% Tween80, 24 Hours): 3.3
Cell Morphology score ([4]; 0.02% Tween80, 48 Hours): 3 (Score 3: 80%<Cell density<40%) and 4 (Score 4: density<100%)
Cell Morphology score, Mean ([4]; 0.02% Tween80, 48 Hours): 3.3
Cell Morphology score ([4]; 0.02% Tween80, 72 Hours): 3 (Score 3: 80%<Cell density<40%) and 4 (Score 4: density<100%)
Cell Morphology score, Mean ([4]; 0.02% Tween80, 72 Hours): 3.7
Cell Morphology score ([4]; 0.04% Tween80, 24 Hours): 3 (Score 3: 80%<Cell density<40%) and 4 (Score 4: density<100%)
Cell Morphology score, Mean ([4]; 0.04% Tween80, 24 Hours): 3.3
Cell Morphology score ([4]; 0.04% Tween80, 48 Hours): 3 (Score 3: 80%<Cell density<40%)
Cell Morphology score, Mean ([4]; 0.04% Tween80, 48 Hours): 3.0
Cell Morphology score ([4]; 0.04% Tween80, 72 Hours): 3 (Score 3: 80%<Cell density<40%)
Cell Morphology score, Mean ([4]; 0.04% Tween80, 72 Hours): 3.0
Cell Morphology score ([4]; 0.06% Tween80, 24 Hours): 3 (Score 3: 80%<Cell density<40%)
Cell Morphology score, Mean ([4]; 0.06% Tween80, 24 Hours): 3.0
Cell Morphology score ([4]; 0.06% Tween80, 48 Hours): 3 (Score 3: 80%<Cell density<40%)
Cell Morphology score, Mean ([4]; 0.06% Tween80, 48 Hours): 3.0
Cell Morphology score ([4]; 0.06% Tween80, 72 Hours): 3 (Score 3: 80%<Cell density<40%)
Cell Morphology score, Mean ([4]; 0.06% Tween80, 72 Hours): 3.0
Cell Morphology score ([4]; 0.08% Tween80, 24 Hours): 2 (Score 2: Cell density<50%) and 3 (Score 3: 80%<Cell density<40%)
Cell Morphology score, Mean ([4]; 0.08% Tween80, 24 Hours): 2.3
Cell Morphology score ([4]; 0.08% Tween80, 48 Hours): 2 (Score 2: Cell density<50%) and 1 (Score 1: Cell density<10%)
Cell Morphology score, Mean ([4]; 0.08% Tween80, 48 Hours): 1.7
Cell Morphology score ([4]; 0.08% Tween80, 72 Hours): 1 (Score 1: Cell density<10%)
Cell Morphology score, Mean ([4]; 0.08% Tween80, 72 Hours): 1.0
cells floating in a typical round dead shape ([4]; 0.1%): over 95%
Cell Morphology score ([4]; 0.1% Tween80, 24 Hours): 1 (Score 1: Cell density<10%)
Cell Morphology score, Mean ([4]; 0.1% Tween80, 24 Hours): 1.0
Cell Morphology score ([4]; 0.1% Tween80, 48 Hours): 1 (Score 1: Cell density<10%)
Cell Morphology score, Mean ([4]; 0.1% Tween80, 48 Hours): 1.0
Cell Morphology score ([4]; 0.1% Tween80, 72 Hours): 1 (Score 1: Cell density<10%)
Cell Morphology score, Mean ([4]; 0.1% Tween80, 72 Hours): 1.0
Morphology limit concentration (%) ([4]; ARPE-19 cells, Table 3 summary): 0.06%
critical limit for lethality (injured cell aspect) ([4]; morphology): 0.06%
pH [2, 11]: 7.5
pH [2, 12]: 7.6
pH [2, 13]: 7.5
pH [2, 14]: 7.5
pH [2, 15]: 7.5
pH [2, 5]: 7.6
mOsm [3, 11]: 310 mOsm
mOsm [3, 12]: 307 mOsm
mOsm [3, 13]: 313 mOsm
mOsm [3, 14]: 346 mOsm
mOsm [3, 15]: 390 mOsm
mOsm [3, 5]: 523 mOsm

hydroxypropyl beta-cyclodextrin [Kleptose]
cell survival ([1]; 5% (w/v), 24 hour time point): about 20%
pH [2, 5]: 7.6
pH [2, 6]: 7.6
pH [2, 7]: 7.5
pH [2, 8]: 7.5
pH [2, 9]: 7.5
pH [2, 10]: 7.6
mOsm [3, 5]: 309 mOsm
mOsm [3, 6]: 317 mOsm
mOsm [3, 7]: 325 mOsm
mOsm [3, 8]: 375 mOsm
mOsm [3, 9]: 459 mOsm
mOsm [3, 10]: 635 mOsm

poloxamer 407nf
increase in cell viability up to [1]: up to 200%

hydroxypropyl gamma-cyclodextrin [Cavasol]
effect on both cell parameters (viability and morphology) [1]: no measurable effect
percentage of living cells ([1]; 0.05 to 10%, recovery after 24 h): > 80%
reduction of cell survival ([1]; 0.1% (w/v), 24 hour, 48 hour and 72 hour time points): ≤ 10%
IC50 (50% cell viability inhibition) ([1]; deduced from viability graphs, incubation 24-72 h): not possible to determine the IC50

sodium carboxymethylcellulose [CMC]
percentage of cell viability [1]: 80-100%
